Data taken from patent US10653694B2, “Cytotoxic compounds which are inhibitors of the polymerisation of tubulin” (CENTRE NATIONAL DE LA RECHERCHE SCIENTIFIQUE (CNRS), priority 2014, dated 2020).
Like-named read-outs stand apart in the source and are kept apart here.

Experiments:
[1] = system: HCT116 human cancer cell line (colorectal cancer); test: Cytotoxicity on HCT116 human cancer cell line (resazurin, 72 h); assay type: cell-based
From the text: (§1) Brown oil, 89%. Rf 0.3 (Cyclohexane/EtOAc, 7/3). IR (neat, cm^−1): 1609, 1593, 1564, 1428, 1205, 1157. ^1H NMR (300 MHz, CDCl3): 8.08 (d, 1H, J=8.2 Hz), 7.90 (d, 1H, J=8.4 Hz), 7.77-7.72 (ddd, 1H, J=8.2 Hz, J=6.9 Hz, J=1.3 Hz), 7.44 (ddd, 1H, J=8.3 Hz, J=7.0 Hz, J=1.0 Hz), 6.49 (d, 2H, J=2.2 Hz), 6.27 (t, 1H, J=2.2 Hz), 4.90 (q, 1H, J=6.9 Hz), 3.73 (s, 6H), 2.91 (s, 3H), 1.78 (d, 3H, J=6.9 Hz). ^13C NMR (75 MHz, CDCl3): 171.8, 163.8, 161.0 (2C), 150.7, 146.9, 133.2, 128.5, 126.6, 124.7, 121.6, 106.2 (2C), 98.0, 55.4 (2C), 43.4, 26.9, 21.1. m/z MS (APCI^+): 309 (M+H)^+. Cytotoxicity Protocol. U87, H1299 and MDA-MB231 cells are grown in Dulbecco minimal essential medium (DMEM) containing 4.5 g/L glucose and supplemented with 10% foetal calf serum and 1% glutamine. K562 and HCT116 cells are grown in RPMI 1640 medium containing 10% foetal calf serum and 1% glutamine. All the cell lines are maintained in culture at 37° C. in a humid atmosphere containing 5% CO2. The cells are inoculated in 96-well culture plates in an amount of 5000 cells per well in 50 μL of culture medium. After 24 hours of culture, the molecule to be tested, dissolved in DMSO and diluted 1/1000 in suitable culture medium, is added in each well in an amount of 50 μL per well. After 72 hours of incubation, 20 μL of resazurin is added in each well. After 1 hour of incubation, emitted fluorescence is measured at 590 nm after excitation at 560 nm using the Victor fluorescence reader (Perkin-Elmer, USA). Each concentration is tested three times and each experiment is repeated three times. Protocol for Inhibition of Polymerisation of Tubulin. When tubulin is placed at a temperature of 0° C., it is in the form of free dimers. […] The IPT of the various synthesized analogues was determined on a soluble tubulin according to the method of Shelanski^7 from sheep brains where it constitutes 20 to 25% of soluble proteins. The “antitubulin” activity is evaluated according to the method of Gaskin^8 by measuring turbidity, which is proportional to the microtubule concentration in the suspension. Turbidity is measured by absorption of the suspension at 350 nm using a spectrophotometer fitted with a cell thermostatically-controlled at 37° C. The various samples were dissolved in DMSO and incubated 10 minutes at 37° C. then 5 minutes at 0° C. The tubulin assembly and disassembly curves are obtained by absorption kinetics at 350 nm as a function of time. The IC50 determined graphically is defined as the concentration of inhibitor necessary to decrease by 50% the maximum rate of assembly of the control tubulin. In Vitro Biological Study of Compounds of the Present Invention
The cytotoxic activity of the compounds was studied in vitro principally on the HCT116 human cancer cell line (colorectal cancer). The line selected for this study was incubated at 37° C. in the presence of one of the compounds added in the culture medium at various concentrations. The inhibitory concentration inducing the death of 50% of the cells (IC50) was determined after 72 hours of incubation (Table 1) for each compound. The set of experiments carried out made it possible to determine the degree of toxicity of the compounds tested by taking isoCA-4 as the reference. […] Lastly, when these first results are examined, it appears that the reduction of the double bond located between the two aromatic nuclei yields “reduced” type II derivatives about 10 times less cytotoxic than their precursors I as we had already noted during the reduction of isoCA-4 derivatives to isoerianin-type derivatives.

tubulin = test: Inhibition of polymerisation of tubulin (IPT); assay type: biochemical, sheep
From the text: as §1
The most cytotoxic compounds were selected for tests of inhibition of polymerisation of tubulin. These tests were carried out under the direction of Dr J. Dubois at Gif-sur-Yvette, France. Tubulin is purified from ewe brains according to the method of Shelanski^9 by two assembly-disassembly cycles. The stock solution (15-20 mg/mL), stored at −196° C., is thawed and diluted in assembly buffer (0.1 M MES, 0.5 mM MgCl2, 1 mM EGTA, and 1 mM GTP, pH 6.6) to have a final concentration of 10 μM. Tubulin assembly is monitored by fluorescence on 96-well plates according to the method of Barron et al.^10 Inhibitor (DMSO, 1 μL) is added to the tubulin solution (10 μM, 100 μL per well) and the solution is incubated 45 minutes at room temperature. GTP (1 mM final) is then added, the solution is mixed rapidly and fluorescence (λex=350 nm, λem=440 nm) is measured on a Wallac Victor fluorometer (Perkin Elmer). The inhibition of 50% of the maximum rate of assembly (IC50) is determined in duplicate or triplicate on 10 concentrations bracketing the IC50.

[2] = system: K562 (chronic myeloid leukaemia); test: Cytotoxicity on K562 line (resazurin, 72 h); assay type: cell-based; details: Homo sapiens
From the text: as §1
(§2) Compounds I-15, I-16 and I-19 were also evaluated on a K562 chronic myeloid leukaemia line and a K562R imatinib-resistant chronic myeloid leukaemia line.

[3] = system: K562R imatinib-resistant chronic myeloid leukaemia line; test: Cytotoxicity on K562R line (72 h); assay type: cell-based; details: Homo sapiens, K-562R; Table 2; 50% cell death after 72 hours of incubation
From the text: Brown oil, 89%. Rf 0.3 (Cyclohexane/EtOAc, 7/3). IR (neat, cm^−1): 1609, 1593, 1564, 1428, 1205, 1157. ^1H NMR (300 MHz, CDCl3): 8.08 (d, 1H, J=8.2 Hz), 7.90 (d, 1H, J=8.4 Hz), 7.77-7.72 (ddd, 1H, J=8.2 Hz, J=6.9 Hz, J=1.3 Hz), 7.44 (ddd, 1H, J=8.3 Hz, J=7.0 Hz, J=1.0 Hz), 6.49 (d, 2H, J=2.2 Hz), 6.27 (t, 1H, J=2.2 Hz), 4.90 (q, 1H, J=6.9 Hz), 3.73 (s, 6H), 2.91 (s, 3H), 1.78 (d, 3H, J=6.9 Hz). ^13C NMR (75 MHz, CDCl3): 171.8, 163.8, 161.0 (2C), 150.7, 146.9, 133.2, 128.5, 126.6, 124.7, 121.6, 106.2 (2C), 98.0, 55.4 (2C), 43.4, 26.9, 21.1. m/z MS (APCI^+): 309 (M+H)^+. Cytotoxicity Protocol. U87, H1299 and MDA-MB231 cells are grown in Dulbecco minimal essential medium (DMEM) containing 4.5 g/L glucose and supplemented with 10% foetal calf serum and 1% glutamine. K562 and HCT116 cells are grown in RPMI 1640 medium containing 10% foetal calf serum and 1% glutamine. All the cell lines are maintained in culture at 37° C. in a humid atmosphere containing 5% CO2. The cells are inoculated in 96-well culture plates in an amount of 5000 cells per well in 50 μL of culture medium. After 24 hours of culture, the molecule to be tested, dissolved in DMSO and diluted 1/1000 in suitable culture medium, is added in each well in an amount of 50 μL per well. […] After 1 hour of incubation, emitted fluorescence is measured at 590 nm after excitation at 560 nm using the Victor fluorescence reader (Perkin-Elmer, USA). […] The IPT of the various synthesized analogues was determined on a soluble tubulin according to the method of Shelanski^7 from sheep brains where it constitutes 20 to 25% of soluble proteins. The “antitubulin” activity is evaluated according to the method of Gaskin^8 by measuring turbidity, which is proportional to the microtubule concentration in the suspension. Turbidity is measured by absorption of the suspension at 350 nm using a spectrophotometer fitted with a cell thermostatically-controlled at 37° C. […]
as §2

[4] = system: H1299 (non-small-cell lung cancer); test: Cytotoxicity on H1299 line (resazurin, 72 h); assay type: cell-based; details: Homo sapiens, NCI-H1299
From the text: as §1, §2

[5] = in the presence of hepatocytes; cited from earlier work
[6] = Homo sapiens, HCT-116, Table 1, concentration inducing 50% cell death after 72 hours of incubation, read-out: HCT116 IC50
[7] = Homo sapiens, HCT-116, 72 hours of incubation, read-out: IC50 (cytotoxicity, HCT116)
[8] = Table 3, inhibition of 50% of the maximum rate of assembly, tubulin 10 μM, read-out: IPT (IC50)
[9] = K562, Table 2, 50% cell death after 72 hours of incubation, read-out: K562 IC50
[10] = Homo sapiens, HCT-116, Table 2, 50% cell death after 72 hours of incubation, read-out: HCT116 IC50
[11] = Table 2, 50% cell death after 72 hours of incubation, read-out: H1299 IC50
[12] = range given jointly for K562 and H1299 lines, read-out: IC50 (cytotoxicity, K562)
[13] = range given jointly for K562 and H1299 lines, read-out: IC50 (cytotoxicity, H1299)

| Structure (SMILES) | IC50 [1, 6] [nM] | IC50 [1, 7] [nM] | IC50 (tubulin; [8]) [nM] | IC50 [2, 9] [nM] | also measured |
| --- | --- | --- | --- | --- | --- |
| C=C(c1ccc(OC)c(OC)c1)c1nc(C)nc2ccccc12 [Compound I-2, 4-[1-(3,4-Dimethoxy-phenyl)-vinyl]-2-methyl-quinazoline] | 460 |  |  |  |  |
| C=C(c1ccc(OC(F)(F)F)cc1)c1nc(C)nc2ccccc12 [Compound I-3, 2-Methyl-4-(1-(4-(trifluoromethoxy)phenyl)vinyl)quinazoline] | 2300 |  |  |  |  |
| C=C(c1ccc(OC)c(OC)c1)c1nc(Cl)nc2ccccc12 [Compound I-11, 2-Chloro-4-[1-(3,4-dimethoxy-phenyl)-vinyl]-quinazoline] | 700 |  |  |  |  |
| C=C(c1ccc(OC)c(O)c1)c1nc(C)nc2ccccc12 [Compound I-6, 2-Methoxy-5-(1-(2-methylquinazolin-4-yl)vinyl)phenol] | 10 | < 20 |  |  | IC50 (tubulin; read-out: IC50 (inhibition of polymerisation of tubulin)): 600 nM |
| C=C(c1ccc(OC)cc1)c1nc(C)cc2ccccc12 [Compound I-18, 1-(1-(4-Methoxyphenyl)vinyl)-3-methylisoquinoline] | 87 |  |  |  |  |
| C=C(c1ccc(OC)c(N)c1)c1nc(C)nc2ccccc12 [Compound I-7, 2-Methoxy-5-(1-(2-methylquinazolin-4-yl)vinyl)aniline] | 10 | < 20 | 2300 |  |  |
| C=C(c1ccc(SC)cc1)c1nc(C)nc2ccccc12 [Compound I-4, 2-Methyl-4-(1-(4-(methylthio)phenyl)vinyl)quinazoline] | 52 |  | 2900 |  |  |
| C=C(c1ccc(OC)cc1)c1cc(Cl)c2ccccc2n1 [Compound I-17, 4-Chloro-2-(1-(4-methoxyphenyl)vinyl)quinoline] | 95 |  |  |  |  |
| C=C(c1ccc(OC)c(C#CCO)c1)c1nc(C)nc2ccccc12 [Compound I-15, 3-(2-Methoxy-5-(1-(2-methylquinazolin-4-yl)vinyl)phenyl)prop-2-yn-1-ol] |  | < 20 | 1200 | 8 | IC50 [1, 10]: 1.5 nM; IC50 [3]: ≤ 1 nM |
| C=C(c1ccc(OC)c(O)c1)c1cc(OC)c(OC)c(OC)c1 [isoCA-4, Isocombretastatin A-4, reference compound] |  |  | 1000 | 4 | IC50 ([1]; Homo sapiens, HCT-116, 72 h, read-out: HCT116 IC50 (nM)): 2 nM; IC50 [4, 11]: 5 nM; metabolized [5]: < 10% |
| COc1ccc(C(C)c2nc(C)nc3ccccc23)cc1OC (centres unmarked) [II-2, 4-[1-(3,4-Dimethoxy-phenyl)-ethyl]-2-methyl-quinazoline] | 950 |  |  |  |  |
| C=C(c1ccc(OC)cc1)c1cc(C#N)nc2ccccc12 [Compound I-16, 4-(1-(4-Methoxyphenyl)vinyl)quinoline-2-carbonitrile] |  | < 20 | 960 | 9 | IC50 [1, 10]: 1.6 nM; IC50 [3]: ≤ 1 nM |
| C=C(c1ccc(OC)cc1)c1cc(C)nc2ccccc12 [Compound I-19, 4-(1-(4-Methoxyphenyl)vinyl)-2-methylquinoline] | ≤ 1 | < 20 | 1090 | 17 | IC50 ([1]; Table 2, 50% cell death after 72 hours of incubation, read-out: HCT116 IC50): ≤ 1 nM; cytotoxic activities (in words) ([1]; cell line not given): sub-nanomolar; IC50 [3]: 0.7 nM |
| COc1ccc(C(C)c2nc(C)nc3ccccc23)cc1 (centres unmarked) [II-1, 4-[1-(4-Methoxy-phenyl)-ethyl]-2-methyl-quinazoline] | 250 |  |  |  |  |
| C=C(c1ccc2ccccc2c1)c1nc(C)nc2ccccc12 [Compound I-8, 2-Methyl-4-(1-(naphthalen-2-yl)vinyl)quinazoline] | 130 |  | 2200 |  | melting point: 113.6 °C |
| C=C(c1cc(OC)c(OC)c(OC)c1)c1nc(Cl)nc2ccccc12 [Compound I-12, 2-Chloro-4-[1-(3,4,5-trimethoxy-phenyl)-vinyl]-quinazoline] | 900 |  |  |  | melting point: 135 to 136 °C |
| C=C(c1ccc(OC)cc1)c1nc(C)nc2ccccc12 [Compound I-1, 4-[1-(4-Methoxy-phenyl)-vinyl]-2-methyl-quinazoline] | 38 | 40 | 1800 | 34 | IC50 [2, 12]: 22 to 38 nM; IC50 [4, 11]: 22 nM; IC50 [4, 13]: 22 to 38 nM |
| C=C(c1ccc(OC)c(F)c1)c1nc(C)nc2ccccc12 [Compound I-5, 4-[1-(3-Fluoro-4-methoxy-phenyl)-vinyl]-2-methyl-quinazoline] | 18 | < 20 | 1000 |  |  |
| C=C(c1ccc(OC)cc1)c1nc(Cl)nc2ccccc12 [Compound I-10, 2-Chloro-4-[1-(4-methoxy-phenyl)-vinyl]-quinazoline] | 34 | 40 | 1900 | 38 | IC50 [2, 12]: 22 to 38 nM; IC50 [4, 11]: 25 nM; IC50 [4, 13]: 22 to 38 nM |
